Assay: Oral treatment of bone and joint diseases with raised internal pressure (own controlled trials)
Format: in vivo, Menschen, Hund, Pferd
Settings: osteoarthrosis (human and veterinary), podotrochlosis of the horse
Source text: Erfindungsgemäß konnte festgestellt werden, daß bei degenerativen Gelenkserkrankungen in den Epiphysen bei am Gelenk beteiligten Knochen ein pathologisch erhöhter Innendruck vorliegt. Analog zur Pathophysiologie des Kompartmentsyndroms wird der intraossäre Druckanstieg durch eine Anreicherung von osmotisch aktiven Substanzen in Intestitium verursacht. In Anlehnung an die vorgestellte Pathophysiologie kann somit erstmals eine kausale Therapie für degenerative Gelenkserkrankungen bereitgestellt werden. Benzopyrone und Dobesilat-calcium vermögen durch Stabilisierung der Kapillarwände einerseits und durch Proteinresorption andererseits den Druck im erkrankten Kompartment abzubauen. Der Druckabbau ermöglicht in der Folge eine Normalisierung der Mikrozirkulation und somit eine Gesundung der betroffenen Gewebe. Wie eigene, kontrollierte Versuche zeigen, eignen sich Benzopyrone wie auch Dobesilat-Calcium zur kausalen Therapie dieser auf innerem Überdruck in Knochen und Gelenken beruhenden Erkrankungen. Dies trifft insbesondere in der Human- und Veterinärmedizin für den Problemkreis der Osteoarthrose und in der Veterinärmedizin für die Podotrochlose des Pferdes zu.
Das 5,6-α-Benzopyron wurde in der Tagesdosis von: • 1 - 4 mg/kg KGW beim Menschen, • 2 - 4 mg/kg KGW beim Hund und • 0,5 - 1 mg/kg KGW beim Pferd peroral verabreicht. […]

O=S(=O)(O)c1cc(O)ccc1O [Dobesilat-Calcium]
Eignung zur kausalen Therapie der auf innerem Überdruck in Knochen und Gelenken beruhenden Erkrankungen: eignen sich

— patent publication EP0670721B1, “DRUG FOR TREATMENT AND PROPHYLAXIS OF BONE AND JOINT DISEASES” (Fricker, Christian, priority 1993, dated 1995)
